Laboratory results: ChEMBL document CHEMBL1201862, “PubChem BioAssay data set” (2004)
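Step 1: Grow cells in 96-well plates. Step 2: Expose to compound for 48 hours at 5 concentrations. Step 3: Interpolate endpoints linearly; if unreached, use highest concentration. Abbreviation: GI50, concentration required for 50% inhibition of growth.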 The source made the active and inactive calls. Cut-off read from the data, not from the text of the source: active = GI50 up to about 1.1 µM and inactive = higher.

Columns and labels:
Assay in all cases: NCI-60 cell line screen, 48 h
BT-549 = system: BT-549
HT-29 = system: HT-29
SNB-75 = system: SNB-75
SK-MEL-28 = system: SK-MEL-28
HCT-116 = system: HCT-116
CCRF-CEM = system: CCRF-CEM
HOP-92 = system: HOP-92
OVCAR-4 = system: OVCAR-4
LOX IMVI = system: LOX IMVI
UACC-62 = system: UACC-62
UACC-257 = system: UACC-257
NCI/ADR-RES = system: NCI/ADR-RES
TK-10 = system: TK-10
SF-295 = system: SF-295
MDA-N = system: MDA-N
IGROV-1 = system: IGROV-1
ACHN = system: ACHN
M14 = system: M14
NCI-H522 = system: NCI-H522
KM12 = system: KM12
MDA-MB-435 = system: MDA-MB-435
NCI-H226 = system: NCI-H226
HOP-62 = system: HOP-62
OVCAR-8 = system: OVCAR-8
T47D = system: T47D
HL-60 = system: HL-60
OVCAR-3 = system: OVCAR-3
HCT-15 = system: HCT-15
SK-MEL-5 = system: SK-MEL-5
SR = system: SR
NCI-H460 = system: NCI-H460
Malme-3M = system: Malme-3M
RPMI-8226 = system: RPMI-8226
COLO 205 = system: COLO 205
SK-OV-3 = system: SK-OV-3
SN12C = system: SN12C
A549 = system: A549
EKVX = system: EKVX
CAKI-1 = system: CAKI-1
SK-MEL-2 = system: SK-MEL-2
Hs-578T = system: Hs-578T
OVCAR-5 = system: OVCAR-5
MDA-MB-231 = system: MDA-MB-231
MCF7 = system: MCF7
SF-268 = system: SF-268
SF-539 = system: SF-539
UO-31 = system: UO-31
MOLT-4 = system: MOLT-4
SNB-19 = system: SNB-19
DU-145 = system: DU-145
SW-620 = system: SW-620
NCI-H23 = system: NCI-H23
HCC 2998 = system: HCC 2998
U-251 = system: U-251
786-0 = system: 786-0
PC-3 = system: PC-3
RXF 393 = system: RXF 393
K562 = system: K562
A498 = system: A498

Measured: GI50

O=C1CNc2cc(N3CCN(c4cccc(C(F)(F)F)c4)CC3)ccc2N1
38.9 µM: HCT-15
inactive: BT-549 42.8 µM | HT-29 70.6 µM | SNB-75 84.7 µM | SK-MEL-28 68.5 µM | HCT-116 35.7 µM | CCRF-CEM 38.4 µM | HOP-92 > 100 µM | OVCAR-4 21.4 µM | LOX IMVI 38.4 µM | UACC-62 35.1 µM | UACC-257 37 µM | NCI/ADR-RES 34.6 µM | TK-10 69.2 µM | SF-295 24.3 µM | MDA-N 84.5 µM | IGROV-1 30.8 µM | ACHN 50.6 µM | M14 18 µM | NCI-H522 13.9 µM | KM12 32.9 µM | MDA-MB-435 95.5 µM | NCI-H226 19.6 µM | HOP-62 > 100 µM | OVCAR-8 83.2 µM | T47D 32.3 µM | HL-60 19.9 µM | OVCAR-3 27.5 µM | SK-MEL-5 18.9 µM | SR 46.3 µM | NCI-H460 53 µM | Malme-3M 14.2 µM | RPMI-8226 31.7 µM | COLO 205 27.5 µM | SK-OV-3 > 100 µM | SN12C > 100 µM | A549 24.7 µM | EKVX 91 µM | CAKI-1 > 100 µM | Hs-578T 42.1 µM | OVCAR-5 68.5 µM | MDA-MB-231 > 100 µM | MCF7 43.1 µM | SF-268 > 100 µM | SF-539 57.3 µM | UO-31 24.7 µM | MOLT-4 28.7 µM | SNB-19 > 100 µM | DU-145 > 100 µM | SW-620 51.2 µM | NCI-H23 39.9 µM | HCC 2998 68.1 µM | U-251 31 µM | 786-0 > 100 µM | PC-3 44.4 µM
active: SK-MEL-2 0.755 µM

O=Cc1cc([N+](=O)[O-])no1
inactive: BT-549 > 100 µM | HT-29 23 µM | SNB-75 > 100 µM | SK-MEL-28 > 100 µM | HCT-116 11 µM | CCRF-CEM 16.6 µM | HOP-92 > 100 µM | OVCAR-4 17.2 µM | LOX IMVI 7.13 µM | UACC-62 19.7 µM | UACC-257 28.5 µM | NCI/ADR-RES 52.4 µM | TK-10 > 100 µM | SF-295 32.5 µM | MDA-N 23.7 µM | IGROV-1 59 µM | M14 17.1 µM | KM12 18.7 µM | MDA-MB-435 15.2 µM | NCI-H226 78.9 µM | HOP-62 38.1 µM | OVCAR-8 41 µM | T47D 50.5 µM | RXF 393 > 100 µM | HL-60 15.9 µM | OVCAR-3 40.6 µM | SK-MEL-5 20 µM | SR 31.4 µM | NCI-H460 44.9 µM | Malme-3M > 10 µM | RPMI-8226 16.9 µM | COLO 205 36 µM | SK-OV-3 > 100 µM | SN12C 38.9 µM | CAKI-1 > 100 µM | SK-MEL-2 24.4 µM | Hs-578T 46.6 µM | OVCAR-5 71.8 µM | MDA-MB-231 26.5 µM | MCF7 22 µM | UO-31 > 100 µM | MOLT-4 18.7 µM | SNB-19 92.9 µM | DU-145 80.5 µM | SW-620 14.8 µM | NCI-H23 33.8 µM | K562 4.85 µM | HCC 2998 35.2 µM | U-251 53.3 µM | PC-3 24.7 µM | A498 > 100 µM
36.8 µM: HCT-15
